{"source": "PubChem BioAssay AID1918991", "about": "(Molecular Pharmacology Branch, DTP, NCI, 2023);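 note: spheroids exposed to compounds for seven days before the viability read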;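 for viability, T/C: luminescent signal used as a stand-in for viable cell amount; 100% = DMSO vehicle control wells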", "system": "186277-243-T-J2-PDC complex spheroid growth", "assay": "Anticancer human tumor 186277-243-T-J2-PDC patient-derived colon adenocarcinoma cell line growth inhibition [AhR]", "conditions": "for IC50: curve of first compound; for viability, T/C: stronger effect = lower value", "from_the_text": "Multicellular complex tumor spheroid response to aryl hydrocarbon receptor antagonists in combination with a variety of drugs and investigational agents in selected tumor cell lines\nThe current study was undertaken to assess response to aryl hydrocarbon receptor antagonists in combination with standard-of-care drugs and investigational agents in solid tumor complex spheroid models. Complex spheroids include a stromal component modeled by human endothelial cells (HUVEC) and fibroblasts modeled by human mesenchymal stem cells (MSCs). The concentration ranges selected for each drug and investigational agent were based upon clinically achievable concentrations if the clinical Cmax of the agent was known.\nCompounds. The drugs and investigational agents: BAY 2416964 (NSC825713), GNF351 (NSC835774), CH-223191 (NSC835775), CPI-455 (NSC825282), aza-TdCyd (NSC777586), decitabine (NSC127716), belinostat (NSC758774), entinostat (NSC756642), pevonedistat (NSC761192), tazemetostat (NSC777109), talazoparib (NSC765396), olaparib (NSC753686), selinexor (NSC780203), nedisertib (M3814, NSC802822), bortezomib (NSC756655), venetoclax (NSC766270), doxorubicin (NSC123127), elimusertib (BAY189344, NSC800525), ceralasertib (AZD6738, NSC777638), TAK-243 (NSC785004), alisertib (NSC759677), etoposide (NSC141540), topotecan (NSC609699), eribulin (NSC707389), gemcitabine (NSC613327), carboplatin (NSC241240), cisplatin (NSC119875), and SN-38 (NSC673596) were obtained from the National Cancer Institute (NCI) Developmental Therapeutics Program Chemical Repository (32). The FDA-approved anticancer drug set is available from the Developmental Therapeutics Program at https://dtp.cancer.gov/organization/dscb/obtaining/available plates.htm. […] The stock solutions were prepared in dimethyl sulfoxide (DMSO, Sigma-Aldrich, St. Louis, MO, cat. D2650), except for the platinum compounds which were prepared in saline (Quality Biological, Gaithersburg, MD, cat. 114-055-101), at 800-fold the tested concentration and stored at -70 degrees C prior to their use. All drugs and investigational agents were tested over a range starting from a high concentration at or near the clinical Cmax and decreasing in half-log increments. If the clinical Cmax for an agent had not been determined, the highest concentration tested was 10 microM (Table 1).\nCell Culture. All cells were maintained in an incubator at 37 degrees C and 5% CO2 with 95% humidity. The PDC lines were cultured according to standard operating procedures established by the NCI PDMR (https://pdmr.cancer.gov). Briefly, all PDCs were thawed and cultured in Matrigel-coated flasks prepared with a working solution of 1X Ham's F-12 nutrient mix, without supplementation (Invitrogen, Waltham, MA, cat. 11765054), 100 U/mL penicillin-streptomycin (Invitrogen, cat. 15140122), and 2.5% Matrigel (Corning Inc., Corning, NY, cat. 354248) for the first three passages. All PDCs were cultured in complete DMEM/F-12 media containing advanced DMEM/F-12 (Invitrogen, cat. 12634028), 4.9% defined fetal bovine serum, heat inactivated (HyClone Laboratories Inc., Logan, UT, cat. SH30070.03HI), 389 ng/mL hydrocortisone (Sigma-Aldrich, cat. H4001), 9.7 ng/mL human EGF recombinant protein (Invitrogen, cat. PHG0313), 23.4 microg/mL adenine (Sigma-Aldrich, cat. A2786), 97.3 U/mL penicillin-streptomycin (Invitrogen, cat. 15140122), 1.9 mM L-glutamine (Invitrogen, cat. 25030081), and 9.7 microM Y-27632 dihydrochloride (Tocris Bioscience, Bristol, United Kingdom, cat. 1254). The PDCs were cultured in complete DMEM/F12 media without 10 microM Y-27632 dihydrochloride for at least two passages prior to the screen. The established cell lines NCI-H1341 and […] were cultured in DMEM/F-12, HEPES (Invitrogen, cat. 11330032), 5% defined fetal bovine serum (HyClone Laboratories Inc., cat. SH30070.03), ITS premix universal culture supplement [insulin (5 microg/mL), transferrin (5 microg/mL), and selenious acid (5 ng/mL)] […]"}
{"smiles": "O=C(C=Cn1cnc(-c2cc(C(F)(F)F)cc(C(F)(F)F)c2)n1)NNc1cnccn1", "note": "+ CC(CO)NC(=O)c1cc(-c2ccc(Cl)cc2)nn(-c2cnn(C)c2)c1=O", "values": [{"measurement": "IC50", "setting": "second compound 0.1 µM", "result": 0.0866, "unit": "µM"}, {"measurement": "IC50", "setting": "second compound 0.316 µM", "result": 0.0892, "unit": "µM"}, {"measurement": "IC50", "setting": "second compound 1 µM", "result": 0.0732, "unit": "µM"}, {"measurement": "IC50", "setting": "second compound 3.16 µM", "result": 0.0729, "unit": "µM"}, {"measurement": "IC50", "setting": "second compound 10 µM", "result": 0.0439, "unit": "µM"}, {"measurement": "viability, T/C", "setting": "second compound 0.1 µM, first compound 0.00949 µM", "result": 80.4, "unit": "%"}, {"measurement": "viability, T/C", "setting": "second compound 0.1 µM, first compound 0.03 µM", "result": 78.3, "unit": "%"}, {"measurement": "viability, T/C", "setting": "second compound 0.1 µM, first compound 0.0949 µM", "result": 46.8, "unit": "%"}, {"measurement": "viability, T/C", "setting": "second compound 0.1 µM, first compound 0.3 µM", "result": 13.1, "unit": "%"}, {"measurement": "viability, T/C", "setting": "second compound 0.1 µM, first compound 0.949 µM", "result": 3.75, "unit": "%"}, {"measurement": "viability, T/C", "setting": "second compound 0.1 µM, first compound 3 µM", "result": 1.33, "unit": "%"}, {"measurement": "viability, T/C", "setting": "second compound 0.316 µM, first compound 0.00949 µM", "result": 78, "unit": "%"}, {"measurement": "viability, T/C", "setting": "second compound 0.316 µM, first compound 0.03 µM", "result": 83.5, "unit": "%"}, {"measurement": "viability, T/C", "setting": "second compound 0.316 µM, first compound 0.0949 µM", "result": 46.7, "unit": "%"}, {"measurement": "viability, T/C", "setting": "second compound 0.316 µM, first compound 0.3 µM", "result": 12.6, "unit": "%"}, {"measurement": "viability, T/C", "setting": "second compound 0.316 µM, first compound 0.949 µM", "result": 4.18, "unit": "%"}, {"measurement": "viability, T/C", "setting": "second compound 0.316 µM, first compound 3 µM", "result": 1.56, "unit": "%"}, {"measurement": "viability, T/C", "setting": "second compound 1 µM, first compound 0.00949 µM", "result": 83.3, "unit": "%"}, {"measurement": "viability, T/C", "setting": "second compound 1 µM, first compound 0.03 µM", "result": 67.6, "unit": "%"}, {"measurement": "viability, T/C", "setting": "second compound 1 µM, first compound 0.0949 µM", "result": 46.9, "unit": "%"}, {"measurement": "viability, T/C", "setting": "second compound 1 µM, first compound 0.3 µM", "result": 13.4, "unit": "%"}, {"measurement": "viability, T/C", "setting": "second compound 1 µM, first compound 0.949 µM", "result": 4.21, "unit": "%"}, {"measurement": "viability, T/C", "setting": "second compound 1 µM, first compound 3 µM", "result": 1.3, "unit": "%"}, {"measurement": "viability, T/C", "setting": "second compound 3.16 µM, first compound 0.00949 µM", "result": 67.8, "unit": "%"}, {"measurement": "viability, T/C", "setting": "second compound 3.16 µM, first compound 0.03 µM", "result": 63.8, "unit": "%"}, {"measurement": "viability, T/C", "setting": "second compound 3.16 µM, first compound 0.0949 µM", "result": 46, "unit": "%"}, {"measurement": "viability, T/C", "setting": "second compound 3.16 µM, first compound 0.3 µM", "result": 12.6, "unit": "%"}, {"measurement": "viability, T/C", "setting": "second compound 3.16 µM, first compound 0.949 µM", "result": 4.26, "unit": "%"}, {"measurement": "viability, T/C", "setting": "second compound 3.16 µM, first compound 3 µM", "result": 2.11, "unit": "%"}, {"measurement": "viability, T/C", "setting": "second compound 10 µM, first compound 0.00949 µM", "result": 62, "unit": "%"}, {"measurement": "viability, T/C", "setting": "second compound 10 µM, first compound 0.03 µM", "result": 55, "unit": "%"}, {"measurement": "viability, T/C", "setting": "second compound 10 µM, first compound 0.0949 µM", "result": 38, "unit": "%"}, {"measurement": "viability, T/C", "setting": "second compound 10 µM, first compound 0.3 µM", "result": 11.7, "unit": "%"}, {"measurement": "viability, T/C", "setting": "second compound 10 µM, first compound 0.949 µM", "result": 3.48, "unit": "%"}, {"measurement": "viability, T/C", "setting": "second compound 10 µM, first compound 3 µM", "result": 2.03, "unit": "%"}]}
{"smiles": "Nc1ccccc1NC(=O)c1ccc(CNC(=O)OCc2cccnc2)cc1", "note": "+ Cc1ccccc1N=Nc1ccc(NC(=O)c2ccnn2C)c(C)c1", "values": [{"measurement": "IC50", "setting": "second compound 0.1 µM", "result": 5.86, "unit": "µM"}, {"measurement": "IC50", "setting": "second compound 0.316 µM", "result": 5.37, "unit": "µM"}, {"measurement": "IC50", "setting": "second compound 1 µM", "result": 5.56, "unit": "µM"}, {"measurement": "IC50", "setting": "second compound 3.16 µM", "result": 5.1, "unit": "µM"}, {"measurement": "IC50", "setting": "second compound 10 µM", "result": 4.12, "unit": "µM"}, {"measurement": "viability, T/C", "setting": "second compound 0.1 µM, first compound 0.0316 µM", "result": 97.5, "unit": "%"}, {"measurement": "viability, T/C", "setting": "second compound 0.1 µM, first compound 0.1 µM", "result": 90, "unit": "%"}, {"measurement": "viability, T/C", "setting": "second compound 0.1 µM, first compound 0.316 µM", "result": 95.1, "unit": "%"}, {"measurement": "viability, T/C", "setting": "second compound 0.1 µM, first compound 1 µM", "result": 105, "unit": "%"}, {"measurement": "viability, T/C", "setting": "second compound 0.1 µM, first compound 3.16 µM", "result": 88.3, "unit": "%"}, {"measurement": "viability, T/C", "setting": "second compound 0.1 µM, first compound 10 µM", "result": 16.5, "unit": "%"}, {"measurement": "viability, T/C", "setting": "second compound 0.316 µM, first compound 0.0316 µM", "result": 106, "unit": "%"}, {"measurement": "viability, T/C", "setting": "second compound 0.316 µM, first compound 0.1 µM", "result": 95.9, "unit": "%"}, {"measurement": "viability, T/C", "setting": "second compound 0.316 µM, first compound 0.316 µM", "result": 96.7, "unit": "%"}, {"measurement": "viability, T/C", "setting": "second compound 0.316 µM, first compound 1 µM", "result": 94.4, "unit": "%"}, {"measurement": "viability, T/C", "setting": "second compound 0.316 µM, first compound 3.16 µM", "result": 79, "unit": "%"}, {"measurement": "viability, T/C", "setting": "second compound 0.316 µM, first compound 10 µM", "result": 16.2, "unit": "%"}, {"measurement": "viability, T/C", "setting": "second compound 1 µM, first compound 0.0316 µM", "result": 102, "unit": "%"}, {"measurement": "viability, T/C", "setting": "second compound 1 µM, first compound 0.1 µM", "result": 96.7, "unit": "%"}, {"measurement": "viability, T/C", "setting": "second compound 1 µM, first compound 0.316 µM", "result": 108, "unit": "%"}, {"measurement": "viability, T/C", "setting": "second compound 1 µM, first compound 1 µM", "result": 91.4, "unit": "%"}, {"measurement": "viability, T/C", "setting": "second compound 1 µM, first compound 3.16 µM", "result": 85.4, "unit": "%"}, {"measurement": "viability, T/C", "setting": "second compound 1 µM, first compound 10 µM", "result": 15, "unit": "%"}, {"measurement": "viability, T/C", "setting": "second compound 3.16 µM, first compound 0.0316 µM", "result": 93.9, "unit": "%"}, {"measurement": "viability, T/C", "setting": "second compound 3.16 µM, first compound 0.1 µM", "result": 97.7, "unit": "%"}, {"measurement": "viability, T/C", "setting": "second compound 3.16 µM, first compound 0.316 µM", "result": 84.8, "unit": "%"}, {"measurement": "viability, T/C", "setting": "second compound 3.16 µM, first compound 1 µM", "result": 96.8, "unit": "%"}, {"measurement": "viability, T/C", "setting": "second compound 3.16 µM, first compound 3.16 µM", "result": 75.9, "unit": "%"}, {"measurement": "viability, T/C", "setting": "second compound 3.16 µM, first compound 10 µM", "result": 13.2, "unit": "%"}, {"measurement": "viability, T/C", "setting": "second compound 10 µM, first compound 0.0316 µM", "result": 82.8, "unit": "%"}, {"measurement": "viability, T/C", "setting": "second compound 10 µM, first compound 0.1 µM", "result": 94.2, "unit": "%"}, {"measurement": "viability, T/C", "setting": "second compound 10 µM, first compound 0.316 µM", "result": 96.5, "unit": "%"}, {"measurement": "viability, T/C", "setting": "second compound 10 µM, first compound 1 µM", "result": 97.4, "unit": "%"}, {"measurement": "viability, T/C", "setting": "second compound 10 µM, first compound 3.16 µM", "result": 61.2, "unit": "%"}, {"measurement": "viability, T/C", "setting": "second compound 10 µM, first compound 10 µM", "result": 12.6, "unit": "%"}]}
